Where a name gives a salt, the structure may show the parent alone. Read-outs that look alike come from different tables or passages of the source.
Columns and labels:
Format in all cases: cell-based, human
[1] = tested on: p-ERK in NCI-H441 cells (KRAS G12V mutation); assay: Cell p-ERK assay (HTRF) in NCI-H441 cells; conditions: NCI-H441 cells, 3 h compound incubation, HTRF p-ERK T202/Y204, read-out: H441 p-ERK IC50
Outline: (§1)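 Phospho-ERK inhibition measured by HTRF after a 3 h compound exposure (0.1% DMSO) in overnight-seeded cells; IC50 derived from dose-response fitting.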

[2] = tested on: p-ERK in AsPC-1 cells (KRAS G12D mutation); assay: Cell p-ERK assay (HTRF) in AsPC-1 cells; conditions: AsPC-1 cells, 3 h compound incubation, HTRF p-ERK T202/Y204, read-out: AsPC-1 p-ERK IC50
Outline: as §1

[3] = tested on: AsPC-1 cells (KRAS G12D mutation); assay: 3D cell proliferation assay (CellTiter Glo-3D), AsPC-1; conditions: medium with 2% FBS, read-out: AsPC-1 AP IC50
Outline: (§2)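 Luminescent CellTiter-Glo 3D readout after 5-day compound exposure (3.16-fold series, 0.1% DMSO, 2% FBS medium) at 37°C on 800 cells/well plated the day before; IC50 from four-parameter curve of inhibition relative to DMSO and blank wells.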

NCI-H441 cells = assay: 3D cell proliferation assay (CellTiter Glo-3D), NCI-H441; conditions: medium with 2% FBS, read-out: H441 AP IC50
Outline: as §2

[4] = Homo sapiens, ASPC1, 3D cell proliferation (CellTiter Glo-3D)
[5] = Homo sapiens, NCI-H441, 3D cell proliferation (CellTiter Glo-3D)
[6] = 3D cell proliferation (CellTiter Glo-3D)

Row | IC50 ([1]; Homo sapiens, NCI-H441, 3 h) | IC50 ([2]; Homo sapiens, ASPC1, 3 h) | IC50 [3, 4] | IC50 (NCI-H441 cells; [5]) | IC50 [1] | IC50 [2] | IC50 [3, 6] | IC50 (NCI-H441 cells; [6]) | SMILES
1 | 0.33 nM | 0.27 nM | 0.52 nM | 0.23 nM |  |  |  |  | CCn1c(-c2cc(C#C[C@H]3COCCN3C)cnc2[C@H](C)OC)c2c3cc(ccc31)-c1csc(n1)C[C@H](NC(=O)[C@H]1[C@H](C)[C@@H]1C)C(=O)N1CCC[C@H](N1)C(=O)OCC(C)(C)C2 (atropisomer, axis not shown; (Ra)) [Compound Z673, (1r,2R,3S)—N-((6^3S,4S,Z)-1^1-ethyl-(Ra)-1^2-(2-((S)-1-methoxyethyl)-5-(((S)-4-methylmorpholin-3-yl)ethynyl)pyridin-3-yl)-10,10-dimethyl-5,7-dioxo-6^1,6^2,6^3,6^4,6^5,6^6hexahydro-1^1H-8-oxa-2(4,2)-thiazola-1(5,3)-indola-6(1,3)-pyridazinacycloundecaphane-4-yl)-2,3-dimethylcyclopropane-1-carboxamide]
2 | 6.3 nM | 26.2 nM | 73.4 nM | 14.3 nM |  |  |  |  | CCn1c(-c2cc(N3CCN(C)CC3)cnc2[C@H](C)OC)c2c3cc(ccc31)-c1csc(n1)C[C@H](Nc1nnc3ccccn13)C(=O)N1CCC[C@H](N1)C(=O)OCC(C)(C)C2 (atropisomer, axis not shown; (Ra)) [Compound Z460, (6^3S,4S,Z)-4-([1,2,4]triazolo[4,3-a]pyridin-3-ylamino)-1^1-ethyl-(Ra)-1^2-(2-((S)-1-methoxyethyl)-5-(4-methylpiperazin-1-yl)pyridin-3-yl)-10-O-dimethyl-6^1,6^2,6^3,6^4,6^5,6^6-hexahydro-1^1H-8-oxa-2(4,2)-thiazola-1(5,3)-indola-6(1,3)-pyridazinacycloundecaphane-5,7-dione]
3 | 0.67 nM | 0.74 nM | 1.47 nM | 0.91 nM |  |  |  |  | CCn1c(-c2cc(C#CCN3CCC3)cnc2[C@H](C)OC)c2c3cc(ccc31)-c1csc(n1)C[C@H](NC(=O)[C@H]1[C@@H]3COC[C@@H]31)C(=O)N1CCC[C@H](N1)C(=O)OCC(C)(C)C2 (atropisomer, axis not shown; (Ra)) [Compound Z1031, (1R,5S,6r)-N-((6^3S,4S,Z)-1^2-(5-(3-(azetidin-1-yl)prop-1-yn-1-yl)-(Ra)-2-((S)-1-methoxyethyl)pyridin-3-yl)-1^1-ethyl-10,10-dimethyl-5,7-dioxo-6^1,6^2,6^3,6^4,6^5,6^6-hexahydro-1^1H-8-oxa-2(4,2)-thiazola-1(5,3)-indola-6(1,3)-pyridazinacycloundecaphane-4-yl)-3-oxabicyclo[3,1,0]hexane-6-carboxamide]
4 | 0.34 nM | 0.71 nM | 0.63 nM | 0.34 nM |  |  |  |  | CCn1c(-c2cc(C#CCN3CC(N=S(C)(C)=O)C3)cnc2[C@H](C)OC)c2c3cc(ccc31)-c1csc(n1)C[C@H](NC(=O)[C@H]1[C@H](C)[C@@H]1C)C(=O)N1CCC[C@H](N1)C(=O)OCC(C)(C)C2 [Compound Z1046, (2R,3S)—N-((6^3S,4S,Z)-1^2-(5-(3-(3-((dimethyl(oxo)-λ^6-sulfaneylidene)amino)azetidin-1-yl)prop-1-yn-1-yl)-2-((S)-1-methoxyethyl)pyridin-3-yl)-1^1-ethyl-10,10-dimethyl-5,7-dioxo-6^1,6^2,6^3,6^4,6^5,6^6-hexahydro-1^1H-8-oxa-2(4,2)-thiazola-1(5,3)-indola-6(1,3)-pyridazinacycloundecaphane-4-yl)-2,3-dimethylcyclopropane-1-carboxamide]
5 | 14 nM | 31.4 nM | 15.3 nM | 6.8 nM |  |  |  |  | CCn1c(-c2cc(C3(N(C)C(=O)CN(C)C)CC3)cnc2[C@H](C)OC)c2c3cc(ccc31)-c1csc(n1)C[C@H](NC(=O)[C@H]1[C@H](C)[C@@H]1C)C(=O)N1CCC[C@H](N1)C(=O)OCC(C)(C)C2 [Compound Z372, (1r,2R,3S)—N-((6^3S,4S,Z)-1^2-(5-(1-(2-(dimethylamino)-N-methylacetamido)cyclopropyl)-2-((S)-1-methoxyethyl)pyridin-3-yl)-1^1-ethyl-10,10-dimethyl-5,7-dioxo-6^1,6^2,6^3,6^4,6^5,6^6-hexahydro-1^1H-8-oxa-2(4,2)-thiazola-1(5,3)-indola-6(1,3)-pyridazinacycloundecaphane-4-yl)-2,3-dimethylcyclopropane-1-carboxamide]
6 | 7.48 nM | 13.9 nM | 17.4 nM | 4.94 nM |  |  |  |  | CCn1c(-c2cc([C@@H]3CCN4CCOC[C@@H]4C3)cnc2[C@H](C)OC)c2c3cc(ccc31)-c1csc(n1)C[C@H](NC(=O)[C@H]1[C@H](C)[C@@H]1C)C(=O)N1CCC[C@H](N1)C(=O)OCC1(CC1)C2 (single isomer, unassigned) [Compound Z77]
7 |  |  |  |  | 2.61 nM | 2.66 nM | 2.38 nM | 2.25 nM | CCn1c(-c2cc(C#CCN3CCC3)cnc2[C@H](C)OC)c2c3cc(ccc31)-c1csc(n1)C[C@H](NC(=O)[C@H]1[C@H](C)[C@@H]1C)C(=O)N1CCC[C@H](N1)C(=O)OCC(C)(C)C2 [Compound Z361, (1r,2R,3S)—N-((6^3S,4S,Z)-1-(5-(3-(azetidin-1-yl)prop-1-yn-1-yl)-2-((S)-1-methoxyethyl)pyridin-3-yl)-1^1-ethyl-10,10-dimethyl-5,7-dioxo-6^1,6^2,6^3,6^4,6^5,6^6-hexahydro-1^1H-8-oxa-2(4,2)-thiazola-1(5,3)-indola-6(1,3)-pyridazinacycloundecaphane-4-yl)-2,3-dimethylcyclopropane-1-carboxamide formate]
8 |  |  |  |  | 0.31 nM | 0.31 nM | 0.88 nM | 0.51 nM | CCn1c(-c2cc(N3CCN4CCOC[C@@H]4C3)cnc2[C@H](C)OC)c2c3cc(ccc31)-c1csc(n1)C[C@H](NC(=O)[C@H]1[C@H](C)[C@@H]1C)C(=O)N1CCC[C@H](N1)C(=O)OCC(C)(C)C2 [Compound Z72]
9 | 0.22 nM | 0.51 nM | 0.64 nM | 0.3 nM |  |  |  |  | CCn1c(-c2cc(C#C[C@@]3(C)CCCN3C)cnc2[C@H](C)OC)c2c3cc(ccc31)-c1csc(n1)C[C@H](NC(=O)[C@H]1[C@H](C)[C@@H]1C)C(=O)N1CCC[C@H](N1)C(=O)OCC(C)(C)C2 (atropisomer, axis not shown; (Ra)) [Compound Z643, (1r,2R,3S)—N-((6^3S,4S,Z)—(Ra)-1-(5-(((R)-1,2-dimethylpyrrolidin-2-yl)ethynyl)-2-((S)-1-methoxyethyl)pyridin-3-yl)-1^1-ethyl-10,10-dimethyl-5,7-dioxo-6^1,6^2,6^3,6^4,6^5,6^6-hexahydro-1^1H-8-oxa-2(4,2)-thiazola-1(5,3)-indola-6(1,3)-pyridazinacycloundecaphane-4-yl)-2,3-dimethylcyclopropane-1-carboxamide]
10 | 1.05 nM | 2.47 nM | 5.14 nM | 1.23 nM |  |  |  |  | CCn1c(-c2cc(C#CCN3CCCS(=O)(=O)CC3)cnc2[C@H](C)OC)c2c3cc(ccc31)-c1csc(n1)C[C@H](Nc1nnc3cc(C)ccn13)C(=O)N1CCC[C@H](N1)C(=O)OCC(C)(C)C2 (atropisomer, axis not shown; (Ra)) [Compound Z979]
11 |  |  |  |  | 0.83 nM | 0.5 nM | 1.05 nM | 0.64 nM | CCn1c(-c2cc(C#CC3(N4CCC4)CC3)cnc2[C@H](C)OC)c2c3cc(ccc31)-c1csc(n1)C[C@H](NC(=O)[C@H]1[C@H](C)[C@@H]1C)C(=O)N1CCC[C@H](N1)C(=O)OCC(C)(C)C2 (atropisomer, axis not shown; (Ra)) [Compound Z836-1, (1r,2R,3S)—N-((4S,Z)—(Ra)-1^2-(5-((1-(azetidin-1-yl)cyclopropyl)ethynyl)-2-((S)-1-methoxyethyl)pyridin-3-yl)-1^1-ethyl-10,10-dimethyl-5,7-dioxo-6^1,6^2,6^3,6^4,6^5,6^6-hexahydro-1^1H-8-oxa-2(4,2)-thiazola-1(5,3)-indola-6(1,3)-pyridazinacycloundecaphane-4-yl)-2,3-dimethylcyclopropane-1-carboxamide]
12 | 0.54 nM | 0.53 nM | 0.27 nM | 0.34 nM |  |  |  |  | CO[C@@H](C)c1ncc(C#CCN2CCS(=O)(=O)CC2)cc1-c1c2c3cc(ccc3n1CCO)-c1csc(n1)C[C@H](NC(=O)[C@H]1[C@H](C)[C@@H]1C)C(=O)N1CCC[C@H](N1)C(=O)OCC(C)(C)C2 (atropisomer, axis not shown; (Ra)) [Compound Z952, (1r,2R,3S)—N-((6^3S,4S,Z)—(Ra)-1^2-(5-(3-(1,1-dioxidothiomorpholino)prop-1-yn-1-yl)-2-((S)-1-methoxyethyl)pyridin-3-yl)-1^1-(2-hydroxyethyl)-10,10-dimethyl-5,7-dioxo-6^1,6^2,6^3,6^4,6^5,6^6-hexahydro-1^1H-8-oxa-2(4,2)-thiazola-1(5,3)-indola-6(1,3)-pyridazinacycloundecaphane-4-yl)-2,3-dimethylcyclopropane-1-carboxamide]

Reference: US20260234165A1, “MACROCYCLIC COMPOUNDS, PREPARATION METHOD THEREFOR, AND USE THEREOF” (GENFLEET THERAPEUTICS (SHANGHAI) INC., priority 2004, published 2026)
